In paper PMC2613801 (Bioorganic & medicinal chemistry, 2008):

Assays:
TRPV1 [1] = target: T1, TRPV1 (Rattus norvegicus, UniProt O35433); experiment: capsaicin-induced 45Ca2+-uptake in TRPV1ε-NIH3T3 cells; type: cell-based; settings: for Hill Slope ± SEM: enhancement of 45Ca2+-uptake in presence of 2 µM capsaicin; for enhancing activity (in words): in presence of 2 µM capsaicin
TRPV1 [2] = target: T1, TRPV1; experiment: capsaicin-induced 45Ca2+-uptake in primary dorsal root ganglion; type: cell-based; settings: for Hill Slope ± SEM / enhancing activity (in words): primary DRG cells; for Hill Slope ± SEM: ~0.5 µM capsaicin, single assay run in quadruplicate wells; for enhancing activity (in words): in presence of capsaicin
TRPV1 [3] = target: T1, TRPV1; experiment: intracellular Ca2+ imaging; type: cell-based
[4] = target: human A3 adenosine receptor; settings: read-out: Ki value at the A3 receptor; ref [30]; cited from earlier work

T1 sequence (O35433 whole entry): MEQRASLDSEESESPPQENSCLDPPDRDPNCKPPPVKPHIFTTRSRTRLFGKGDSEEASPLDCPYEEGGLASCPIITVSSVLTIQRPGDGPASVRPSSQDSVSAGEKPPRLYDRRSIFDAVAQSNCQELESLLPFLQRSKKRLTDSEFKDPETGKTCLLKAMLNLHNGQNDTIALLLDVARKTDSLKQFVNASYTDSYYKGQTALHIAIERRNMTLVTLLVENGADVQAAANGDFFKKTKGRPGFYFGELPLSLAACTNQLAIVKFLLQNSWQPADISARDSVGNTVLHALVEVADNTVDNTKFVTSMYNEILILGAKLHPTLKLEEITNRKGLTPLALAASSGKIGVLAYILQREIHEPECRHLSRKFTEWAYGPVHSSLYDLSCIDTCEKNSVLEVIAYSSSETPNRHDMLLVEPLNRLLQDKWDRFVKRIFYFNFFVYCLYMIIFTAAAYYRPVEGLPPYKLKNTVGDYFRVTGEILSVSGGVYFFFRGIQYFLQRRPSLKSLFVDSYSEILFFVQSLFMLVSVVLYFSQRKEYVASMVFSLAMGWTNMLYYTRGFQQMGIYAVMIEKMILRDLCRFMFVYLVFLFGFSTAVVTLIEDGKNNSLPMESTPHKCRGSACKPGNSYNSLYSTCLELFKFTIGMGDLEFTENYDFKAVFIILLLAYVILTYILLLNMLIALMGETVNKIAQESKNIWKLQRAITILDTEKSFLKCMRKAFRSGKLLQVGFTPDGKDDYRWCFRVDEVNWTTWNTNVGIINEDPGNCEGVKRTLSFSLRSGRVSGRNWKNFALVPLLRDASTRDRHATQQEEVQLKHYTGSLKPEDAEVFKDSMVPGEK

Hill Slope ± SEM (TRPV1 [1]) | enhancing activity (in words) (TRPV1 [1]) | Structure (SMILES) | also measured
1.45 ± 0.28 | – | CCOC(=O)C1=C(C)NC(c2cccc(Cl)c2)=C(C(=O)OCC)C1CC (racemic) [Compound 9, 3,5-Diethyl-2-methyl-4-ethyl-6-(3-chlorophenyl)-1,4-(±)-dihydropyridine-3,5-dicarboxylate] | Hill Slope ± SEM (TRPV1 [2]): 2.24 ± 0.53
1.98 ± 0.30 | – | CCOC(=O)C1=C(C)NC(c2cccc(F)c2)=C(C(=O)OCC)C1CC (racemic) [Compound 10, 3,5-Diethyl-2-methyl-4-ethyl-6-(3-fluorophenyl)-1,4-(±)-dihydropyridine-3,5-dicarboxylate] | EC50 (TRPV1 [2]): 20.5 ± 1.1 µM; Hill Slope ± SEM (TRPV1 [2]): 2.64 ± 0.59
1.86 ± 0.42 | – | CCOC(=O)C1=C(C)NC(c2ccc(F)cc2)=C(C(=O)OCC)C1CC (racemic) [Compound 11, 3,5-Diethyl-2-methyl-4-ethyl-6-(4-fluorophenyl)-1,4-(±)-dihydropyridine-3,5-dicarboxylate] | EC50 (TRPV1 [2]): 15.7 ± 1.3 µM; Hill Slope ± SEM (TRPV1 [2]): 2.01 ± 0.77
1.59 ± 0.33 | strong, dosedependent effects | CCOC(=O)C1=C(c2cccc(F)c2)NC(C)=C(C(=O)SCC)C1CC (racemic) [Compound 14, 3-Ethylthio-5-ethyl-2-methyl-4-ethyl-6-(3-fluorophenyl)-1,4-(±)-dihydropyridine-3,5-dicarboxylate] | –
1.82 ± 0.33 | – | CCOC(=O)C1=C(c2ccc(F)cc2)NC(C)=C(C(=O)SCC)C1CC (racemic) [Compound 15, 3-Thioethyl-5-ethyl-2-methyl-4-ethyl-6-(4-fluorophenyl)-1,4-(±)-dihydropyridine-3,5-dicarboxylate] | –
– | inactive | CCOC(=O)C1=C(C2CCCCC2)NC(C)=C(C(=O)SCC)C1CC (racemic) [Compound 17, 3-Ethylthio-5-ethyl-2-methyl-4-ethyl-6-cyclohexyl-1,4-(±)-dihydropyridine-3,5-dicarboxylate] | –
1.14 ± 0.32 | – | CCCC1C(C(=O)SCCc2ccccc2)=C(C)NC(c2ccccc2)=C1C(=O)OCC (racemic) [Compound 26, 3-(2-Phenylethylthio)-5-ethyl-2-methyl-4-propyl-6-phenyl-1,4-(±)-dihydropyridine-3,5-dicarboxylate] | –
1.18 ± 0.25 | slightly active | CCOC(=O)C1=C(c2ccc(F)cc2)NC(C)=C(C(=O)SCCc2ccccc2)C1CC (racemic) [Compound 29, 3-(2-Phenylethylthio)-5-ethyl-2-methyl-4-ethyl-6-(4-fluorophenyl)-1,4-(±)-dihydropyridine-3,5-dicarboxylate] | –
– | neutral | CCOC(=O)C1=C(c2ccc([N+](=O)[O-])cc2)NC(C)=C(C(=O)SCc2ccccc2)C1CC (racemic) [Compound 31] | enhancing activity (in words) (TRPV1 [2]): inactive
1.55 ± 0.17 | – | CCOC(=O)C1=C(c2ccccc2)N=C(C)/C(=C(/O)SCC)C1CC (stereo not shown) [Compound 12] | –
1.38 ± 0.23 | strong, dosedependent effects | CCCC1C(C(=O)OCC)=C(c2ccccc2)N=C(C)/C1=C(/O)SCC (stereo not shown) [Compound 18] | EC50 (TRPV1 [2]): 10.5 ± 1.1 µM; Hill Slope ± SEM (TRPV1 [2]): 1.47 ± 0.16
1.79 ± 0.17 | strong, dosedependent effects | CCOC(=O)C1=C(c2ccccc2)N=C(C)/C(=C(/O)SCCOC)C1CC (stereo not shown) [Compound 23] | fold increase in calcium influx (TRPV1 [1]; 2 µM capsaicin): 5.3 fold; peak ratio (340/380, normalized to baseline) (TRPV1 [3]; 200 nM capsaicin in the presence of 10 µM 23, 30 sec, 69 cells): 1.701±0.001
– | no enhancing effect | CCOC(=O)C1=C(C)NC(c2ccccc2)=C(C(=O)OCc2ccccc2)C1C#Cc1ccccc1 (stereo not shown) [MRS1191, 1,4-dihydro-2-methyl-6-phenyl-4-(phenylethynyl)-3,5-pyridinedicarboxylic acid, 3-ethyl 5-(phenylmethyl) ester, reference compound] | –
– | not enhancers | CO/C(O)=C1\C(C)=NC(C)=C([N+](=O)[O-])[C@H]1c1ccccc1C(F)(F)F [S(–)-Bay K 8644, reference compound] | enhancing activity (in words) (TRPV1 [2]): not enhancers
– | – | COc1cc(CNC(=O)CCCC/C=C/C(C)C)ccc1O [capsaicin, reference compound] | ED100 for capsaicin activation of TRPV1 (TRPV1 [1]; pH 7.5): ~ 2 µM; peak ratio (340/380, normalized to baseline) (TRPV1 [3]; 200 nM capsaicin alone, 30 sec, 98 cells): 1.518±0.001
– | not enhancers | COC(=O)C1=C(C)NC(C)=C(C(=O)OCCN(C)Cc2ccccc2)C1c1cccc([N+](=O)[O-])c1 (stereo not shown) [nicardipine, reference compound] | enhancing activity (in words) (TRPV1 [2]): not enhancers; Ki [4]: 3.25 µM
